Reference: patent publication US12391650B2, “Catecholamine prodrugs for use in the treatment of Parkinson's disease” (H. Lundbeck A/S, priority 2019, dated 2025)
Where two headings read alike, the source gives them in different places.

Legend:
[1] = Conversion of compounds in human plasma; format: in vitro ADME; details: for Observed metabolite, incubation in human plasma: 1 μM test compound, 37° C., 0-6 hours
Procedure: Frozen human plasma was thawed and then centrifuged at 3200×g for 5 minutes to remove debris. The pH value of the supernatant was then measured and adjusted to 7.4±0.1 by adding 1% phosphoric acid or 1 N sodium hydroxide. 2 μL of dosing solution (50 μM for test compounds and 100 μM for positive control (propantheline bromide)) was mixed with 98 μL of blank plasma to achieve 1 μM test compound and 2 μM positive control of final concentration. The mixture was incubated, and samples were withdrawn from the incubations at the pre-determined time points of 0, 0.5, 1, 2, 4 and 6 hours (in duplicate) at 37° C. in water bath. At each corresponding time point 10 μL inhibitor and 20 μL ascorbic acid and 2 μL formic acid (20%) are added, and then added 400 μL of “stop solution” (200 ng/mL tolbutamide plus 200 ng/mL labetalol in 50% ACN/MeOH) to precipitate protein. The substance was mixed thoroughly and thereafter centrifugated at 4,000 rpm for 20 minutes. Then an aliquot of supernatant (50 μL) was transferred from each well to a sample plate and mixed with 100 μL ultrapure water. The plate was shaked at 800 rpm for about 10 minutes before submitting to LC-MS/MS analysis.
Instrumentation used for analysis of plasma and hepatocyte incubation samples:
Mass spectrometer (LC-MS/MS) Shimadzu LC 20-AD Shimadzu UHPLC API 4000. Analytical column ACQUITY UPLC® BEH Phenyl 1.7 μm 2.1×50 mm. Mobile phase A: 0.1% Formic Acid in water. Mobile phase B: 0.1% formic acid in acetonitrile. […] Flow rate 0.7 mL/min.

human 5-HT2B receptor = molecular target: T1, human 5-HT2B receptor (Homo sapiens, UniProt P41595); assay: 5-HT2B agonist activity assay (IP1 production, HTRF, transfected CHO cells); format: cell-based
T1 construct: host or cells: CHO cells
T1 sequence (P41595 whole entry): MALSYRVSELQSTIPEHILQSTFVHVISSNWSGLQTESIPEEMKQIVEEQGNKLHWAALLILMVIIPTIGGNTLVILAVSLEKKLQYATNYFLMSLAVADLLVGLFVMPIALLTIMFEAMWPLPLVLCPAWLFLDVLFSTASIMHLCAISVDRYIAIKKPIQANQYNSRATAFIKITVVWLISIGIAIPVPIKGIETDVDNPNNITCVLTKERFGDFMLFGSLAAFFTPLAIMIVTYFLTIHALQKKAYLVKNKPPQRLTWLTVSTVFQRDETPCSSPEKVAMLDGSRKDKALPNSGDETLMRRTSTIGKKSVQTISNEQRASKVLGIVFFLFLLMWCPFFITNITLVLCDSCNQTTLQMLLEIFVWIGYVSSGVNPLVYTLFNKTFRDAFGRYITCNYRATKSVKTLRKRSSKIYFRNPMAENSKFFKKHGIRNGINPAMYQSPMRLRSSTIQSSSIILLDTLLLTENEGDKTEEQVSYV
Procedure: Evaluation of the agonist activity of compounds (I), (Ia), (Ib), (Ic), compound (2), compound (3), compound (6), compound (8), and compound (9) at the human 5-HT2B receptor was performed by Eurofins/Cerep (France) measuring the compound effects on inositol monophosphate (IP1) production using the HTRF detection method. Briefly, the human 5-HT2B receptor was expressed in transfected CHO cells. The cells were suspended in a buffer containing 10 mM Hepes/NaOH (pH 7.4), 4.2 mM KCl, 146 mM NaCl, 1 mM CaCl2, 0.5 mM MgCl2, 5.5 mM glucose and 50 mM LiCl, then distributed in microplates at a density of 4100 cells/well and incubated for 30 minutes at 37° C. in the presence of buffer (basal control), test compound or reference agonist. For stimulated control measurement, separate assay wells contained 1 μM 5-HT. Following incubation, the cells were lysed and the fluorescence acceptor (fluorophen D2-labeled IP1) and fluorescence donor (anti-IP1 antibody labeled with europium cryptate) were added. After 60 minutes at room temperature, the fluorescence transfer was measured at lambda(Ex) 337 nm and lambda(Em) 620 and 665 nm using a microplate reader (Rubystar, BMG). The IP1 concentration was determined by dividing the signal measured at 665 nm by that measured at 620 nm (ratio). The results were expressed as a percent of the control response to 1 μM 5-HT. The standard reference agonist was 5-HT, which was tested in each experiment at several concentrations to generate a concentration-response curve from which its EC50 value is calculated as described above for dopamine functional assays.

[2] = PK experiments in rats after oral dosing, plasma compound (I); format: in vivo, Han Wistar rats; details: Wistar rats; for Observed metabolite, in vivo PK study after oral dosing (rats): plasma
Procedure: Plasma was placed on water-ice following collection. Final storage at approximately −70° C.
Mobile phase B: Acetonitrile. […] Flow rate 0.5 mL/min.
The rats had unrestricted access to the diet.
Mobile phase B: Acetonitrile+0.2% formic acid. […] Flow rate 0.3 mL/min.
Dosing and blood sampling for compound (Ic), compound (2), compound (3), compound (8), and compound (9): Han Wistar rats were supplied by Envigo, UK. […] The rats received a standard laboratory diet Teklad 2014C. The rats had unrestricted access to the diet. […] Rats were given 494 μg/kg (Ic), 392 μg/kg compound (8), 426 μg/kg compound (9), 359 μg/kg compound (3) and 551 μg/kg compound (2).

[3] = rats; cited from earlier work
[4] = various animal models relevant for Parkinson's Disease; cited from earlier work
[5] = Conversion of compounds in human hepatocytes; format: in vitro ADME; details: 1 μM compound, 37° C.
Procedure: Incubations were conducted in 96-well plates at 1 μM compound concentration in duplicate. The hepatocyte cell concentration was 0.5×10^6 cells/mL used for final incubation at 37° C. in an incubator of 5% CO2 95% relative humidity. The medium control samples were included at 0 and 60 minutes in the absence of cells. The total organic concentration was 1% (DMSO 0.1%) in the final incubation. The controls, (7-ethoxycoumarin and 7-hydroxycoumarin) was incubated parallel at […]. 2 μL of dosing solution (50 μM for test compounds and 100 μM for positive control) was mixed with 98 μL of 100 mM PBS to achieve 1 μM test compound and 2 μM positive control of final concentration. The mixture was incubated, and samples were withdrawn from the incubations at pre-determined time points of 0, 0.5, 1, 2, 4 and 6 hours (in duplicate) at 37° C. in water bath. To each sample, 10 μL inhibitor and 20 μL ascorbic acid and 2 μL formic acid (20%) were added followed by 400 μL of stop solution (200 ng/mL tolbutamide plus 200 ng/mL labetalol in 50% ACN/MeOH). The substance was mixed thoroughly and thereafter centrifuged at 4,000 rpm for 20 minutes. An aliquot of supernatant (50 μL) from each well were transferred to a sample plate and mixed with 100 μL ultrapure water. The plate was shaked at 800 rpm for about 10 minutes before submitting to LC-MS/MS analysis. […]

[6] = PD patients, intravenous (IV); cited from earlier work
[7] = man, oral dosing, extensive hepatic first-pass metabolism; cited from earlier work
[8] = rats; cited from earlier work; remark: listed apart in the source
[9] = human hepatocytes; cited from earlier work
[10] = rat hepatocytes; cited from earlier work
[11] = percent of the control response to 1 μM 5-HT

Compound | Observed metabolite, incubation in human plasma [1] | 5-HT2B % effect @ 10 μM (human 5-HT2B receptor; [11]) [% @ 10 μM] | Observed metabolite, in vivo PK study after oral dosing (rats) [2] | In vivo pharmacology, efficacy [4] | Plasma concentration profile of compound (I) after oral dosing, in words [2] | further results
CCC[N@+]1(COP(=O)([O-])O)CCC[C@@H]2Cc3c(ccc(O)c3O)C[C@H]21 [Compound (9), ((1S,4aR,10aR)-6,7-dihydroxy-1-propyl-1,2,3,4,4a,5,10,10a-octahydrobenzo[g]quinolin-1-ium-1-yl)methyl hydrogen phosphate] | Compound (1) | −1 | Compound (1) | – | – | –
CCCN1CCC[C@@H]2Cc3c(ccc(O)c3O)C[C@H]21 [compound (I), (4aR,10aR)-1-n-Propyl-1,2,3,4,4a,5,10,10a-octahydro-benzo[g]quinoline-6,7-diol] | – | – | – | effective | – | Oral bioavailability, in words [3]: low oral bioavailability; Half-life in the plasma assay ([1]; human plasma, in words): short half-life
CCCN1CCC[C@@H]2Cc3c(ccc(OCc4ccccc4)c3O)C[C@H]21 [Compound (2), (4aR,10aR)-7-(benzyloxy)-1-propyl-1,2,3,4,4a,5,10,10a-octahydrobenzo[g]quinolin-6-ol] | Compound (1) | 30 | Compound (1) | – | – | Observed metabolite, incubation in human hepatocytes [5]: Compound (1)
CCCN1CCC[C@@H]2Cc3c(ccc(O)c3OP(=O)(O)O)C[C@H]21 [Compound (8), (4aR,10aR)-7-hydroxy-1-propyl-1,2,3,4,4a,5,10,10a-octahydrobenzo[g]quinolin-6-yl dihydrogen phosphate] | Compound (1) | – | Compound (1) | – | – | 5-HT2B % effect @ 1 μM (human 5-HT2B receptor; 1 μM, percent of the control response to 1 μM 5-HT): 0% @ 1 μM
CCCN1CCC[C@@H]2Cc3c(ccc(OP(=O)(O)O)c3OP(=O)(O)O)C[C@H]21 [Compound (6), (4aR,10aR)-1-propyl-1,2,3,4,4a,5,10,10a-octahydrobenzo[g]quinoline-6,7-diyl bis(dihydrogen phosphate)] | Compound (8) | 4 | – | – | – | Observed metabolite, incubation in human plasma ([1]; listed as compound (6)): compound (8) was formed; Appearance of compound (I) in incubation ([1]; human plasma, in words): no appearance of compound (I) was observed
CCCN1CCC[C@@H]2Cc3c(ccc(OC(=O)C(C)(C)C)c3OC(=O)C(C)(C)C)C[C@H]21 [(Ic), reference compound] | – | −5 | – | – | extremely low | –
CCCN1CCC[C@@H]2Cc3c(ccc(OC)c3O)C[C@H]21 [Compound (3), (4aR,10aR)-7-methoxy-1-propyl-1,2,3,4,4a,5,10,10a-octahydrobenzo[g]quinolin-6-ol] | – | 27 | Compound (1) | – | – | Observed metabolite, incubation in human hepatocytes [5]: Compound (1)
CCCc1cc2c(s1)CN[C@@H]1CCc3cc(OC(C)=O)c(OC(C)=O)cc3[C@@H]21 [Adrogolide] | – | – | – | – | – | Antiparkinson efficacy [6]: comparable to that of L-DOPA; Oral bioavailability [7]: ~4%
CCCN1CCC[C@@H]2CC3=C(CCCC3=O)C[C@H]21 [(Ia), reference compound] | – | – | – | effective | early and high peak plasma concentrations of compound (I) | Conversion to the active compound (I) [8]: converted to the active compound (I); 5-HT2B % effect @ 30 μM (human 5-HT2B receptor; 30 μM, percent of the control response to 1 μM 5-HT): 58%
CCCN1CCC[C@@H]2Cc3c(ccc4c3OCO4)C[C@H]21 [(Ib), (6aR,10aR)-7-propyl-6,6a,7,8,9,10,10a,11-octahydro-[1,3]dioxolo[4′,5′:5,6]benzo[1,2-g]quinoline] | – | – | – | effective | early and high peak plasma concentrations of compound (I) | Conversion to compound (I) [9]: demonstrated; Conversion to compound (I) [10]: demonstrated; 5-HT2B receptor agonism, in words (human 5-HT2B receptor): agonist of the 5-HT2B receptor
